Laboratory results reported in patent US5443986A, “Enzymatic analysis using substrates that yield fluorescent precipitates” (Molecular Probes, Inc., priority 1993, dated 1995).

Columns and labels:
[1] = Critical concentration (Mc) for precipitation of the enzymatic product; format: physicochemical; conditions: product of hydrolysis by excess alkaline phosphatase, 0.1M TRIS pH 10.3
Protocol: 2D) Critical concentration: Various concentrations of 2-(4'-methoxy-2'-phosphoryloxyphenyl)quinazolinone (3e) were reacted with 50 μL of excess alkaline phosphatase in 200 μL solution of 0.1M TRIS≥pH 10.3 containing 50 mM NaCl, 10 mM MgCl2 and 0.1 mM ZnCl2. The resulting precipitate and fluorescence were measured in a CytoFluor fluorescence plate reader (Millipore) with excitation at 360 nm, emission at 460 nm using sensitivity setting 3.
3). Determination of the critical concentration and pH dependence for the precipitation. The critical concentration (Mc, in units of mmoles) and the pH dependence (pKa) for precipitation are both important parameters for judging the precipitation properties of the enzymatic products obtained from the subject substrates. Below the critical concentration the product will not be detected as a fluorescent precipitate. Obviously these two parameters contribute to the precipitation in a correlated way. As a simple approach, one may define the critical concentration as the concentration necessary for the precipitation at a high pH where all of the phenol group is ionized. Similarly, acidification by lowering the pH results in precipitation at a concentration below the critical concentration that is obtained at high pH to an extent that is related to the pKa of the phenolic group. It is a characteristic of the preferred substrates that only the product precipitate is fluorescent. In this case the precipitate is quantitated by its fluorescence which results in a correlation of the fluorescence with the degree of precipitation.
To obtain the critical concentration for one product the phosphatase substrate (1e) (200 μL) in a 96-well plate is added to 0.1M TRIS, pH 10.3, containing 50 mM NaCl, 10 mM MgCl2 and 0.1 mM ZnCl2 to yield a final concentration of 0.1 to 10 mM. 50 μL of a 1 mg/mL solution of alkaline phosphatase is then added. The fluorescence development is complete after 5 minutes as measured in using a CytoFluor™ 2300 fluorescence plate reader (Millipore, Bedford, Mass.). A concentration showing appreciable fluorescence is determined as the critical concentration.

alkaline phosphatase = alkaline phosphatase (Bos taurus, UniProt P19111); format: biochemical; design: mature GPI-type homodimer; conditions: 0.1M TRIS pH 10.3, 50 mM NaCl, 10 mM MgCl2, 0.1 mM ZnCl2; double-reciprocal plot
Protocol: As compared with other synthetic substrates, the fluorogenic precipitating substrates described in this invention normally have high enzymatic turnover rates and moderate affinities for the enzymes. Turnover rates of the substrates can be determined as in Example 10 and expressed as micromoles of product per minute per milligram protein (k2, in units of μmol·min^-1 ·mg^-1). The affinity of the substrate is determined by its dissociation constant, KM, in millimolar units. The enzymes can bind to and catalyze conversion of the soluble substrates into detectable reaction products that are apparently less soluble and will precipitate in aqueous solutions. The preferred detectable reaction products are fluorescent precipitates. The precipitation, however, and thus fluorescence, depends on the reaction product concentration or the initial substrate concentration used, as well as the ionization state of the product's phenol group. There are two parameters determining the precipitation, i.e. critical concentration (Mc) and pH dependence (pKa). A method for determination of these parameters is given in Example 11. Table 10 gives the relevant parameters for the enzymatic reaction and precipitation of quinazolinone-based alkaline phosphatase substrates.
4). Kinetic assay of some of the substrates. The specific activity (k2, in a unit of micromole per minute per milligram protein) and Michaelis constant (KM, in a unit of millimole) for hydrolysis of the substrates by the enzyme are listed in Table 10. All of the specific enzymatic reactions are made in the following buffers:
For alkaline phosphatase: 0.1M TRIS pH 10.3 containing 50 mM NaCl, 10 mM MgCl2 and 0.1 mM ZnCl2.
Because the kinetic assay involves variable amounts of precipitate with variable light scattering, measurement in the fluorometer as described above cannot be used here. Instead, a fluorescence plate reader with front-face measurement geometry such as the CytoFluor™ 2300 (Millipore, Bedford, Mass.) is preferred for quantitating the precipitate. The following protocol illustrates the kinetic assay.
4.1 ). In a 96-well plate, pipette 200 μL of a phosphatase substrate in the alkaline phosphatase reaction buffer with a final concentration of 2 to 6 mM, then add 50 μL 1 mg/mL alkaline phosphatase. […] Fluorescence of the precipitate is measured in the CytoFluor with appropriate sensitivity and excitation and emission settings as have been determined with the fluorometer. The fluorescence signal versus the amount of the precipitate is then established for each substrate.
4.2). […] Read the fluorescence of the resulting precipitate after 10 minutes reaction time and calculate the precipitate formation rate per minute by use of the determined fluorescence signal versus the amount of the precipitate. […]

alkaline phosphatase, sequence (P19111 20-506): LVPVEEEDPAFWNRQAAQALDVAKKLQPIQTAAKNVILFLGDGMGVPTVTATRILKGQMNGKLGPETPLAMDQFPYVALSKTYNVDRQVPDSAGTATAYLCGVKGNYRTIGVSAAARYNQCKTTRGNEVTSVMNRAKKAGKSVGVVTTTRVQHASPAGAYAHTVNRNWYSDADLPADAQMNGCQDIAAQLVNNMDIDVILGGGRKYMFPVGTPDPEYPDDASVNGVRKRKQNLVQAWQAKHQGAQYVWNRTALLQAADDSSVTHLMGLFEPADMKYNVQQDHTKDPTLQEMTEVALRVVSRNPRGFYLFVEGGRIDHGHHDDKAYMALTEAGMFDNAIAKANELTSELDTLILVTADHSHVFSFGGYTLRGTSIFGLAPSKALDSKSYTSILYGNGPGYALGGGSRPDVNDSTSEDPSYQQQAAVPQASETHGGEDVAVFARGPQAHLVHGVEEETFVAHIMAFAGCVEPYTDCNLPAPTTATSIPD

O=c1[nH]c(-c2cc(Cl)ccc2OP(=O)(O)O)nc2ccc(Cl)cc12 [8e, Ammonium 2-(5'-chloro-2'-phosphoryloxyphenyl)-6-chloro-4-(3H)-quinazolinone]
Mc (critical concentration for precipitation) [1]: 0.1 mM | k2 (specific activity, turnover rate) (alkaline phosphatase): 618.60 µmol/min/mg
